Test results as given in patent publication US11040028B2, “Penicinotam derivative, preparation method and use thereof” (OCEAN UNIVERSITY OF CHINA, priority 2017, dated 2021).

How the values were obtained:
Assay type in all cases: cell-based
BHK-21 cells = assay: Anti-fibrosis activity test: inhibition of BHK-21 cell proliferation (CCK-8); conditions: Mesocricetus auratus, BHK-21, 48 h, CCK-8, 48 hours after administration
Outline: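 Each concentration was tested in triplicate on adhered BHK-21 cells for 48 h, with pirfenidone as reference. A 2 h CCK-8 incubation preceded absorbance reading at 450 nm, and IC50 was obtained from percent inhibition versus blank.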

[1] = tested on: human dermal fibroblasts CCC-ESF-1; assay: Anti-fibrosis activity test: inhibition of proliferation of human dermal fibroblasts CCC-ESF-1 (CCK-8); conditions: Fibroblast; human dermal fibroblasts CCC-ESF-1, CCK-8, 48 hours
Outline: (§1)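 Cells were seeded at 2×10^4 cells/mL and allowed to adhere for 24 h at 37° C, 5% CO2, then exposed to graded compound concentrations in triplicate for 48 h. CCK-8 was added for 2 h, A450 was read, and IC50 was derived from inhibition rate = (1−Ai/Ao)×100%.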

NF-κB = assay: Immunological activity test: inhibition of NF-κB activity; conditions: initial concentration of 30 μM; a/b isomers given as first/second symbol; read-out: IC50 (μM), inhibitory activity against NF-κB
Outline: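 Single-point testing at 30 μM preceded IC50 determination.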

[2] = tested on: human embryonic lung fibroblast IMR-90; assay: Anti-fibrosis activity test: inhibition of proliferation of human embryonic lung fibroblast IMR-90 (CCK-8); conditions: human embryonic lung fibroblast IMR-90, CCK-8, 48 hours
Outline: as §1

[3] = tested on: mouse macrophages (RAW264.7); assay: Lipopolysaccharide-induced NO secretion in macrophages (Griess); conditions: Mus musculus, RAW264.7, 24 h, RAW264.7, LPS 1 μg/ml, a/b isomers given as first/second symbol, read-out: IC50 (μM), inhibition of lipopolysaccharide-induced NO secretion in macrophages
Outline: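 RAW264.7 cells in DMEM with 10% FBS were treated with test compounds at several concentrations, then stimulated with LPS (1 μg/ml) for 24 hours. Nitrite in the supernatant was measured by Griess reaction at 548 nm, and percent inhibition was calculated against blank-medium controls.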

[4] = tested on: human lung fibroblasts HFL1; assay: Anti-fibrosis activity test: inhibition of proliferation of human lung fibroblasts HFL1 (CCK-8); conditions: Homo sapiens, HFL1, 48 h, human lung fibroblasts HFL1, CCK-8, 48 hours
Outline: as §1

[5] = tested on: cardiac fibroblast RAT-iCell-C002; assay: Anti-fibrosis activity test: inhibition of proliferation of cardiac fibroblast RAT-iCell-C002 (CCK-8); conditions: Cardiac fibroblast, 48 h, cardiac fibroblast RAT-iCell-C002, CCK-8, 48 hours
Outline: as §1

[6] = tested on: human fibrosarcoma cells HT-1080; assay: Anti-fibrosis activity test: inhibition of proliferation of human fibrosarcoma cells HT-1080 (CCK-8); conditions: Homo sapiens, HT-1080, 48 h, human fibrosarcoma cells HT-1080, CCK-8, 48 hours
Outline: as §1

[7] = tested on: human hepatic stellate cells LX-2; assay: Anti-fibrosis activity test: inhibition of proliferation of human hepatic stellate cells LX-2 (CCK-8); conditions: Homo sapiens, 48 h, human hepatic stellate cells LX-2, CCK-8, 48 hours
Outline: as §1

Row | SMILES | IC50 (BHK-21 cells) [mM] | IC50 [1] [mM] | IC50 (NF-κB) [µM] | IC50 [2] [mM] | IC50 [3] [µM] | IC50 [4] [mM] | IC50 [5] [mM] | IC50 [6] [mM] | IC50 [7] [mM]
1 | O=C1c2c(nc3ccccc3c2OCc2cccc(F)c2)-c2cccn21 [Compound 595b, 9-((3-fluorobenzyl)oxy)-10H-pyrrolizino[1,2-b]quinolin-10-one] | 0.05 to 5 | 0.05 to 5 | 1 to 10 | 0.05 to 5 | 0.1 to 1 | 0.05 to 5 | 0.05 to 5 | 0.05 to 5 | 0.05 to 5
2 | O=C1c2c(n(Cc3cccc(Cl)c3)c3ccccc3c2=O)-c2cccn21 [Compound 596a, 4-(3-Chlorobenzyl)-9H-pyrrolizino[1,2-b]quinoline-9,10(4H)-dione] | 0.05 to 5 | 0.05 to 5 | 1 to 10 | 0.05 to 5 | 1 to 10 | 0.05 to 5 | 0.05 to 5 | 0.05 to 5 | 0.05 to 5
3 | O=C1c2c(nc3ccccc3c2OCc2cccc(Cl)c2)-c2cccn21 [Compound 596b, 9-((3-chlorobenzyl)oxy)-10H-pyrrolizino[1,2-b]quinolin-10-one] | 0.05 to 5 | 0.05 to 5 | 1 to 10 | 0.05 to 5 | 1 to 10 | 0.05 to 5 | 0.05 to 5 | 0.05 to 5 | 0.05 to 5
4 | N#Cc1cccc(Cn2c3c(c(=O)c4ccccc42)C(=O)n2cccc2-3)c1 [Compound 597a, 3-((9,10-Dioxo-9H-pyrrolizino[1,2-b]quinolin-4(10H)-yl)methyl)benzonitrile] | 0.05 to 5 | 0.05 to 5 | 1 to 10 | 0.05 to 5 | 1 to 10 | 0.05 to 5 | 0.05 to 5 | 0.05 to 5 | 0.05 to 5
5 | N#Cc1cccc(COc2c3c(nc4ccccc24)-c2cccn2C3=O)c1 [Compound 597b, 3-(((10-oxo-10H-pyrrolizino[1,2-b]quinolin-9-yl)oxy)methyl)benzonitrile] | 0.05 to 5 | 0.05 to 5 | 1 to 10 | 0.05 to 5 | 1 to 10 | 0.05 to 5 | 0.05 to 5 | 0.05 to 5 | 0.05 to 5
6 | O=C1c2c(n(Cc3cccc(C(F)(F)F)c3)c3ccccc3c2=O)-c2cccn21 [Compound 598a, 4-(3-(Trifluoromethyl)benzyl)-9H-pyrrolizino[1,2-b]quinoline-9,10(4H)-dione] | 0.05 to 5 | 0.05 to 5 | 1 to 10 | 0.05 to 5 | 1 to 10 | 0.05 to 5 | 0.05 to 5 | 0.05 to 5 | 0.05 to 5
7 | O=C1c2c(nc3ccccc3c2OCc2cccc(C(F)(F)F)c2)-c2cccn21 [Compound 598b, 9-((3-(trifluoromethyl)benzyl)oxy)-10H-pyrrolizino[1,2-b]quinolin-10-one] | 0.05 to 5 | 0.05 to 5 | 1 to 10 | 0.05 to 5 | 1 to 10 | 0.05 to 5 | 0.05 to 5 | 0.05 to 5 | 0.05 to 5
8 | O=C1c2c(n(Cc3ccccc3F)c3ccccc3c2=O)-c2cccn21 [Compound 599a, 4-(2-Fluorobenzyl)-9H-pyrrolizino[1,2-b]quinoline-9,10(4H)-dione] | 0.05 to 5 | 0.05 to 5 | 0.1 to 1 | 0.05 to 5 | 1 to 10 | 0.05 to 5 | 0.05 to 5 | 0.05 to 5 | 0.05 to 5
9 | O=C1c2c(nc3ccccc3c2OCc2ccccc2F)-c2cccn21 [Compound 599b, 9-((2-fluorobenzyl)oxy)-10H-pyrrolizino[1,2-b]quinolin-10-one] | 0.05 to 5 | 0.05 to 5 | 1 to 10 | 0.05 to 5 | 1 to 10 | 0.05 to 5 | 0.05 to 5 | 0.05 to 5 | 0.05 to 5
